In patent publication US12195559B2, “CDCA1-derived peptide and vaccine containing same” (ONCOTHERAPY SCIENCE, INC., priority 2018, dated 2025):
Entries after “also recorded” stand apart in the source; their conditions may differ.

Experiments:
peptide-pulsed C1R-A01 [1] = assay: In vitro CTL induction, IFN-gamma ELISPOT assay; format: cell-based, human; settings: CD8-positive T cells from HLA-A*01:01-positive donors stimulated with DCs pulsed with 20 micro-g/ml peptide, target C1R-A01 pulsed vs not pulsed
Protocol: C1R cells (C1R-A01) that constitutively express HLA-A*01:01 was used as cells for stimulating CTLs. A cDNA encoding the HLA-A*01:01 gene was amplified by PCR and introduced into an expression vector. C1R cells incorporated with HLA-A*01:01 gene expression vector were cultured for two weeks under drug selection with a medium containing G418 (Invitrogen). After diluting G418-resistant C1R cell suspension, the cells were seeded into a 96-well plate, and subjected to selective culture for another 30 days with a medium containing G418. The HLA-A*01:01 expression in C1R cells was verified by flow cytometric analysis.
Monocyte-derived dendritic cells (DCs) were used as the antigen-presenting cell to induce a cytotoxic T lymphocyte (CTL) specific to peptides presented on human leukocyte antigens (HLAs). DCs were prepared in vitro as already reported in the literature (Nakahara S et al., Cancer Res 2003, 63(14): 4112-8). Specifically, peripheral-blood mononuclear cells (PBMCs) collected from healthy volunteers (HLA-A*01:01-positive) with the Ficoll-Paque plus solution (Pharmacia) were seeded into plastic tissue culture dishes (Corning) to allow attachment of monocytes in PBMCs to the dishes. Then, the cells were cultured in the presence of 1000 IU/ml granulocyte macrophage colony-stimulating factor (R&D System) and 1000 IU/ml interleukin (IL)-4 (R&D System) for seven days. As medium, an AIM-V medium (Invitrogen) containing inactivated AB type serum (MP Biomedicals) was used (2% ABS/AIM-V medium). […] Peptide pulsing was performed in the AIM-V medium. These peptide-pulsed DCs were inactivated by X-ray irradiation (20 Gy), and mixed in a 1:20 ratio with autologous CD8-positive T cells obtained by using the CD8 Positive Isolation Kit (Invitrogen) (1.5×10^4 DCs and 3×10^5 CD8-positive T cells), and cultured in a 48-well plate (Corning). The volume of 2% ABS/AIM-V medium was 0.5 ml per 1 well, and IL-7 (R&D System) was added (final concentration: 10 ng/ml) to the well. Two days after the start of culture, IL-2 (Novartis) was added thereto (final concentration: 20 IU/ml). On 7th day of culture and 14th day of culture, CD8-positive T cells were further stimulated with peptide-pulsed DCs. The DCs were prepared before use by the same method as above. On 21st day or thereafter (after the third DC stimulation), IFN-gamma production of CD8-positive T cells against peptide-pulsed C1R-A01 was confirmed by enzyme-linked immunospot (ELISPOT) assay (Tanaka H et al., Br J Cancer 2001, 84(1): 94-9; Umano Y et al., Br J Cancer 2001, 84(8): 1052-7; Uchida N et al., Clin Cancer Res 2004, 10(24): 8577-86; Suda T et al., Cancer Sci 2006, 97(5): 411-9; Watanabe T et al., Cancer Sci 2005, 96(8): 498-506).
(§1) C1R-A01 pulsed with a peptide was prepared as target cells. The IFN-gamma ELISPOT assay and IFN-gamma ELISA were performed according to the procedures recommended by the assay kit manufacturer.

[2] = system: COS7 cells expressing CDCA1 and HLA-A*01:01; assay: IFN-gamma production of CTL clone against target cells expressing CDCA1 and HLA-A*01:01; format: cell-based, African green monkey
Protocol: as §1
The cDNA encoding the CDCA1 or HLA-A*01:01 gene were amplified by PCR. Each PCR amplified product was incorporated into an expression vector. Using Lipofectamine 2000 (Invitrogen), either or both of the CDCA1 gene expression vector and the HLA-A*01:01 gene expression vector were introduced into COS7 cells, an HLA-negative cell line, according to the procedure recommended by the manufacturer. On the next day of the gene introduction, the COS7 cells were separated using Versene (Invitrogen) and used as target cells.

peptide-pulsed C1R-A01 [3] = assay: IFN-gamma ELISA of CTL clones established by limiting dilution; format: cell-based, human; settings: CTL clones against peptide-pulsed vs non-pulsed target cells
Protocol: CTLs were propagated using a method similar to that reported by Riddell et al. (Walter E A et al., N Engl J Med 1995, 333(16): 1038-44; Riddell S R et al., Nat Med 1996, 2(2): 216-23). In a flask for tissue culture (FALCON), the CTLs were cultured in 5% ABS/AIM-V medium (culture solution volume: 25 ml/flask) with two types of human B lymphoblastoid cell lines (5×10^6 cells each) treated with mitomycin C and anti-CD3 antibody (BD biosciences, final concentration: 40 ng/ml). On the next day after the culturing was started, IL-2 was added to the culture (IL-2 final concentration: 120 IU/ml). On days 5, 8, and 11, the medium was changed to 5% ABS/AIM-V medium containing 60 IU/ml IL-2 (IL-2 final concentration: 30 IU/ml) (Tanaka H et al., Br J Cancer 2001, 84(1): 94-9; Umano Y et al., Br J Cancer 2001, 84(8): 1052-7; Uchida N et al., Clin Cancer Res 2004, 10(24): 8577-86; Suda T et al., Cancer Sci 2006, 97(5): 411-9; Watanabe T et al., Cancer Sci 2005, 96(8): 498-506).
After CTLs were induced in vitro, the CTLs were seeded at 1 cell/well or 10 cells/well in a 96-well round-bottomed microplate (Corning). The CTLs were cultured in 5% ABS/AIM-V medium (culture solution volume: […]) with two types of human B lymphoblastoid cell lines (1×10^4 cells each) treated with mitomycin C, anti-CD3 antibody (final concentration: 30 ng/ml), and IL-2 (final concentration: 125 IU/ml). After 10 days, […] of 5% ABS/AIM-V medium containing 500 IU/ml IL-2 was added to the culture.
as §1

In the case of “ARQEVVEKY (a peptide derived from CDCA1) [SEQ ID NO: 35, CDCA1-derived 9mer peptide, start position 268]”, the “Peptide-specific IFN-gamma production (CTL induction)” value (peptide-pulsed C1R-A01 [1]; listed as CDCA1-A01-9-268) is reported as “Peptide-specific IFN-gamma production relative to the control well was observed; also recorded: able to induce CTLs that showed peptide-specific IFN-gamma production”.
With “DSPEKLKNY (a peptide derived from CDCA1) [SEQ ID NO: 34, CDCA1-derived 9mer peptide, start position 246]” the “Peptide-specific IFN-gamma production (CTL induction)” value (peptide-pulsed C1R-A01 [1]; listed as CDCA1-A01-9-246) was “Peptide-specific IFN-gamma production relative to the control well was observed; also recorded: able to induce CTLs that showed peptide-specific IFN-gamma production”.
With “ETYMEFLWQY (a peptide derived from CDCA1) [SEQ ID NO: 8, CDCA1-derived 10mer peptide, start position 136]” the “Peptide-specific IFN-gamma production (CTL induction)” value (peptide-pulsed C1R-A01 [1]; listed as CDCA1-A01-10-136) was “Peptide-specific IFN-gamma production relative to the control well was observed; also recorded: able to induce CTLs that showed peptide-specific IFN-gamma production”, the “IFN-gamma production of CTL clone against target cells” value ([2]; COS7 cells expressing both CDCA1 and HLA-A*01:01) was “showed IFN-gamma production” and the “IFN-gamma production of CTL clone against negative control cells” value ([2]; COS7 cells expressing either CDCA1 or HLA-A*01:01, listed as CDCA1-A01-10-136) was “no significant IFN-gamma production was observed; also recorded: did not show significant IFN-gamma production”. The “Peptide-specific IFN-gamma production of CTL clones” value (peptide-pulsed C1R-A01 [3]; listed as CDCA1-A01-10-136) was “showed peptide-specific IFN-gamma production”.
With “FREACRETY (a peptide derived from CDCA1) [SEQ ID NO: 33, CDCA1-derived 9mer peptide, start position 130]” the “Peptide-specific IFN-gamma production (CTL induction)” value (peptide-pulsed C1R-A01 [1]; listed as CDCA1-A01-9-130) was “Peptide-specific IFN-gamma production relative to the control well was observed; also recorded: able to induce CTLs that showed peptide-specific IFN-gamma production”.
“IYMRALQIVY (a peptide derived from CDCA1) [SEQ ID NO: 13, CDCA1-derived 10mer peptide, start position 48]” was tested, and the “Peptide-specific IFN-gamma production (CTL induction)” value (peptide-pulsed C1R-A01 [1]; listed as CDCA1-A01-10-48) was “Peptide-specific IFN-gamma production relative to the control well was observed; also recorded: able to induce CTLs that showed peptide-specific IFN-gamma production” and the “Peptide-specific IFN-gamma production of CTL clones” value (peptide-pulsed C1R-A01 [3]; listed as CDCA1-A01-10-48) was “showed peptide-specific IFN-gamma production”.
For “MMPVNSEVMY (a peptide derived from CDCA1) [SEQ ID NO: 9, CDCA1-derived 10mer peptide, start position 66]”, the “Peptide-specific IFN-gamma production (CTL induction)” value (peptide-pulsed C1R-A01 [1]; listed as CDCA1-A01-10-66) was “No IFN-gamma production; also recorded: peptide-specific IFN-gamma production was not observed”.
With “QLVQLYQK (QLEVQLYQK; a peptide derived from CDCA1) [SEQ ID NO: 25, CDCA1-derived 9mer peptide, start position 290]” the “Peptide-specific IFN-gamma production (CTL induction)” value (peptide-pulsed C1R-A01 [1]; listed as CDCA1-A01-9-290) was “Peptide-specific IFN-gamma production relative to the control well was observed; also recorded: able to induce CTLs that showed peptide-specific IFN-gamma production”.
With “SCQLEVQLY (a peptide derived from CDCA1) [SEQ ID NO: 37, CDCA1-derived 9mer peptide, start position 288]” the “Peptide-specific IFN-gamma production (CTL induction)” value (peptide-pulsed C1R-A01 [1]; listed as CDCA1-A01-9-288) was “Peptide-specific IFN-gamma production relative to the control well was observed; also recorded: able to induce CTLs that showed peptide-specific IFN-gamma production”.
For “VYGIRLEHFY (a peptide derived from CDCA1) [SEQ ID NO: 10, CDCA1-derived 10mer peptide, start position 56]”, the “Peptide-specific IFN-gamma production (CTL induction)” value (peptide-pulsed C1R-A01 [1]; listed as CDCA1-A01-10-56) was “Peptide-specific IFN-gamma production relative to the control well was observed; also recorded: able to induce CTLs that showed peptide-specific IFN-gamma production” and the “Peptide-specific IFN-gamma production of CTL clones” value (peptide-pulsed C1R-A01 [3]; listed as CDCA1-A01-10-56) was “showed peptide-specific IFN-gamma production”.
With “YMEFLWQY (a peptide derived from CDCA1) [SEQ ID NO: 1, CDCA1-derived 8mer peptide, start position 138]” the “Peptide-specific IFN-gamma production (CTL induction)” value (peptide-pulsed C1R-A01 [1]; listed as CDCA1-A01-8-138) was “Peptide-specific IFN-gamma production relative to the control well was observed; also recorded: able to induce CTLs that showed peptide-specific IFN-gamma production”.
